The nature of data set [1]: Solubility of compound at pH 2. The following applies: buffer. Type of data set: physicochemical.
A short description of data set [2]: Unbound intrinsic clearance in rat hepatocytes. It counts as ADME, cell-based, Hepatocyte.
Data set [3] in a line: Unbound intrinsic clearance in human hepatocytes. It counts as ADME, cell-based, Hepatocyte.
Data set [4] is described as follows: Solubility of compound at pH 7. It counts as physicochemical. The following applies: buffer.
Data set [5] has as its target T1, Indoleamine 2,3-dioxygenase 1 (Homo sapiens, UniProt P14902). Kind of data set: Inhibition of IDO1 in IFN gamma-stimulated human HeLa cells measured after 48 hrs by fluorescence based microplate reader assay. It counts as cell-based.
Target sequence in this assay (P14902 whole entry): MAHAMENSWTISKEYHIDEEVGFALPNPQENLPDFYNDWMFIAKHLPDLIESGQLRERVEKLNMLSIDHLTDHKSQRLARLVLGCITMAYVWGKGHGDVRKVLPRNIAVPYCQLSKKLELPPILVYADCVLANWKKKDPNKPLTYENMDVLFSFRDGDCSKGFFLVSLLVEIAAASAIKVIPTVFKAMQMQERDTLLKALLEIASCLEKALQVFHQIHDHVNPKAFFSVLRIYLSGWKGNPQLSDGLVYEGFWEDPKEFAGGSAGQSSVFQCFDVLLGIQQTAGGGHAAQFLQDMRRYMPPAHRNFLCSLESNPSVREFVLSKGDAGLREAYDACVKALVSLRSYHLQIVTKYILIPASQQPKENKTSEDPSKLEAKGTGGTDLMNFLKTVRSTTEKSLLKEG
Data set [6] deals with T1, Indoleamine 2,3-dioxygenase 1. The experiment in a line: Displacement of [3H] labeled-N-(4-Fluorophenyl)-3-(4-(4-(2-hydroxypropan-2-yl)-6-(trifluoromethyl)pyridin-3-yl)phenyl)oxetane-3-carboxamide from human IDO1 assessed as dissociation half life by radioligand binding assay. Background: Loss of bound radioactivity is the signal in a displacement assay; it reports binding, not function.
Target sequence in this assay (P14902 whole entry, looked up): as the sequence (P14902 whole entry) above

Data set [7] in a line: Inhibition of Sodium channel (unknown origin) current. Also on record: species or system Homo sapiens.
The next data set deals with Cytochrome P450 2C9 (Homo sapiens, UniProt P11712). The experiment in a line: Inhibition of CYP2C9 (unknown origin). Type of data set: ADME.
Chain of Cytochrome P450 2C9 (P11712 whole entry): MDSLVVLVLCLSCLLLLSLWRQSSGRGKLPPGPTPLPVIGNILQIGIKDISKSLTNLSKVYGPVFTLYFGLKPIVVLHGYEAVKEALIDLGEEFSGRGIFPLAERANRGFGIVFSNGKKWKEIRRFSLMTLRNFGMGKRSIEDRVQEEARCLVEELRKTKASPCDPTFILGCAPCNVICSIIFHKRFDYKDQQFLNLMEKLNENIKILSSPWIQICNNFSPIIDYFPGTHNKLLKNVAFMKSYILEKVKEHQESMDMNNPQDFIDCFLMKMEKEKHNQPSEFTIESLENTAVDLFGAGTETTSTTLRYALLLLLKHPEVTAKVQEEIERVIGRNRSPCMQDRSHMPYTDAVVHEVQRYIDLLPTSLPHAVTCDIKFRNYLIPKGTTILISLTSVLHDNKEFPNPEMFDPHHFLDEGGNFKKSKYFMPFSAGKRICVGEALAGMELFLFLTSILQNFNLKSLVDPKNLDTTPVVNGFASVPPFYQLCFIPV
The nature of data set [8]: Oral bioavailability in dog using spray-dried dispersion at 0.5 mg/kg by LC-MS/MS analysis. It counts as ADME, organism-based, Canis lupus familiaris. To be noted: in vivo.
Data set [9] in a line: Oral bioavailability in Wistar Han rat using crystalline form of sample at 1 mg/kg by LC-MS/MS analysis. It counts as ADME, organism-based. The following applies: in vivo.
Data set [10] has as its target T1, Indoleamine 2,3-dioxygenase 1. The experiment in a line: Displacement of [3H] labeled-N-(4-Fluorophenyl)-3-(4-(4-(2-hydroxypropan-2-yl)-6-(trifluoromethyl)pyridin-3-yl)phenyl)oxetane-3-carboxamide from human IDO1 assessed as inhibition constant by radioligand binding assay.
Target sequence in this assay (P14902 whole entry): as the sequence (P14902 whole entry) above
Data set [11] is described as follows: Oral bioavailability in Wistar Han rat using spray-dried dispersion at 1 mg/kg by LC-MS/MS analysis. It counts as ADME, organism-based. The following applies: in vivo.
Data set [12] can be described thus: Half life in Wistar Han rat at 1 mg/kg, po or 0.5 mg/kg, iv by LC-MS/MS analysis. To be noted: in vivo. Type of data set: ADME, organism-based.
Data set [13] has as its target Indoleamine 2,3-dioxygenase 1 (Mus musculus) (UniProt P28776). Kind of data set: In vivo inhibition of human IDO1 knock-in mouse CT26 cells translated in single oral gavage dosed CD1 mouse tumor model assessed as reduction in kynurenine level in plasma measured upto 24 hrs. It counts as functional, organism-based. To be noted: dose 0.3-30 mg/kg, DDE = dose-dependent effect.

In data set [14] the target is T1, Indoleamine 2,3-dioxygenase 1. Kind of data set: Displacement of [3H] labeled-N-(4-Fluorophenyl)-3-(4-(4-(2-hydroxypropan-2-yl)-6-(trifluoromethyl)pyridin-3-yl)phenyl)oxetane-3-carboxamide from human IDO1 assessed as dissociation rate constant by radioligand binding assay.
Target sequence in this assay (P14902 whole entry, looked up): as the sequence (P14902 whole entry) above
A short description of data set [15]: Inhibition of Calcium channel (unknown origin) current. Details: species or system Homo sapiens.
The target of data set [16] is T1, Indoleamine 2,3-dioxygenase 1. The experiment in a line: Inhibition of IDO1 in IFNgamma/LPS stimulated human whole blood assessed as unbound concentration using kynurenine/tryptophan as substrate preincubated with compound for 15 mins followed by incubation with IFNgamma/LPS for 18 hrs by LC/MS/MS analysis. It counts as tissue-based.
Target sequence in this assay (P14902 whole entry): as above
Data set [17] deals with Indoleamine 2,3-dioxygenase 1 (Mus musculus) (UniProt P28776). Kind of data set: In vivo inhibition of human IDO1 knock-in mouse CT26 cells translated in single oral gavage dosed CD1 mouse tumor model assessed as reduction in kynurenine level in tumor measured upto 24 hrs. It counts as functional, organism-based. The following applies: dose 0.3-30 mg/kg, DDE = dose-dependent effect.
Chain of Indoleamine 2,3-dioxygenase 1 (Mus musculus) (P28776 whole entry, looked up): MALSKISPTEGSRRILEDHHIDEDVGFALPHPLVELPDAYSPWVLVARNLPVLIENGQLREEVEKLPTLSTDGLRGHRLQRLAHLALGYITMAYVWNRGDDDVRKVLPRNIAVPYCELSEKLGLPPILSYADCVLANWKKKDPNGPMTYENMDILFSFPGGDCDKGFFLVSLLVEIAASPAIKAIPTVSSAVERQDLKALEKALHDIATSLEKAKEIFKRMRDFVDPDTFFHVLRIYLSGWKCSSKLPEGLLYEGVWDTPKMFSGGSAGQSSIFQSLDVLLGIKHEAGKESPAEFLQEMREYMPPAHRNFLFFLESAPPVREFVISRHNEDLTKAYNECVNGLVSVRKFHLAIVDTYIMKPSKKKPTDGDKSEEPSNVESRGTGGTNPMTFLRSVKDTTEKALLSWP

Data set [18] is described as follows: Oral bioavailability in dog using crystalline at 0.5 mg/kg by LC-MS/MS analysis. Type of data set: ADME, organism-based, Canis lupus familiaris. To be noted: in vivo.
Data set [19] in a line: Inhibition of potassium channel (unknown origin) current. Also on record: species or system Homo sapiens.
A short description of data set [20]: Half life in dog at 0.5 mg/kg, po or 0.25 mg/kg, iv by LC-MS/MS analysis. To be noted: in vivo. It counts as ADME, organism-based, Canis lupus familiaris.
Data set [21] concerns the target Voltage-gated inwardly rectifying potassium channel KCNH2 (Homo sapiens, UniProt Q12809). The experiment in a line: Inhibition of MK-499 binding to hERG. Type of data set: toxicity. For orientation: Block of hERG is tested as a sign of cardiac risk.
Data set [22] in a line: Half life in rat. It counts as ADME. The following applies: in vivo.
Data set [23] is described as follows: MRT in rat. The following applies: in vivo. Type of data set: ADME.
Data set [24] is described as follows: Volume of distribution at steady state in rat. Type of data set: ADME. To be noted: in vivo.
The target in data set [25] is T1, Indoleamine 2,3-dioxygenase 1. Kind of data set: Displacement of [3H] labeled-N-(4-Fluorophenyl)-3-(4-(4-(2-hydroxypropan-2-yl)-6-(trifluoromethyl)pyridin-3-yl)phenyl)oxetane-3-carboxamide from human IDO1 assessed as dissociation constant by radioligand binding assay.
Target sequence in this assay (P14902 whole entry): as the sequence (P14902 whole entry) above

≈ marks a conversion by molar mass, not a printed value. Some results are limits rather than exact numbers.

What is called solubility is the dissolved amount per volume that the medium holds. Low readings indicate a poorly soluble substance, high ones a readily soluble substance. What is called IC50 is the point on the concentration scale where inhibition reaches its midpoint. As a reminder, the bioavailability is dose-corrected exposure relative to a reference, in per cent. The low end stands for little systemic uptake, the high end for much systemic uptake. The Ki is a measure of affinity in units of concentration, obtained from inhibition or displacement. The term half-life denotes the time needed for the level to fall by half in the phase considered. Read a low half-life as rapid decline. The term MRT denotes the average time that molecules of a dose stay in the body. A word on the Vdss: it is the apparent volume that relates the amount in the body to the concentration in plasma or blood. Higher therefore signals extensive tissue distribution. In general, Kd refers to a measure of binding affinity in units of concentration.

Chain of Voltage-gated inwardly rectifying potassium channel KCNH2 (Q12809 whole entry): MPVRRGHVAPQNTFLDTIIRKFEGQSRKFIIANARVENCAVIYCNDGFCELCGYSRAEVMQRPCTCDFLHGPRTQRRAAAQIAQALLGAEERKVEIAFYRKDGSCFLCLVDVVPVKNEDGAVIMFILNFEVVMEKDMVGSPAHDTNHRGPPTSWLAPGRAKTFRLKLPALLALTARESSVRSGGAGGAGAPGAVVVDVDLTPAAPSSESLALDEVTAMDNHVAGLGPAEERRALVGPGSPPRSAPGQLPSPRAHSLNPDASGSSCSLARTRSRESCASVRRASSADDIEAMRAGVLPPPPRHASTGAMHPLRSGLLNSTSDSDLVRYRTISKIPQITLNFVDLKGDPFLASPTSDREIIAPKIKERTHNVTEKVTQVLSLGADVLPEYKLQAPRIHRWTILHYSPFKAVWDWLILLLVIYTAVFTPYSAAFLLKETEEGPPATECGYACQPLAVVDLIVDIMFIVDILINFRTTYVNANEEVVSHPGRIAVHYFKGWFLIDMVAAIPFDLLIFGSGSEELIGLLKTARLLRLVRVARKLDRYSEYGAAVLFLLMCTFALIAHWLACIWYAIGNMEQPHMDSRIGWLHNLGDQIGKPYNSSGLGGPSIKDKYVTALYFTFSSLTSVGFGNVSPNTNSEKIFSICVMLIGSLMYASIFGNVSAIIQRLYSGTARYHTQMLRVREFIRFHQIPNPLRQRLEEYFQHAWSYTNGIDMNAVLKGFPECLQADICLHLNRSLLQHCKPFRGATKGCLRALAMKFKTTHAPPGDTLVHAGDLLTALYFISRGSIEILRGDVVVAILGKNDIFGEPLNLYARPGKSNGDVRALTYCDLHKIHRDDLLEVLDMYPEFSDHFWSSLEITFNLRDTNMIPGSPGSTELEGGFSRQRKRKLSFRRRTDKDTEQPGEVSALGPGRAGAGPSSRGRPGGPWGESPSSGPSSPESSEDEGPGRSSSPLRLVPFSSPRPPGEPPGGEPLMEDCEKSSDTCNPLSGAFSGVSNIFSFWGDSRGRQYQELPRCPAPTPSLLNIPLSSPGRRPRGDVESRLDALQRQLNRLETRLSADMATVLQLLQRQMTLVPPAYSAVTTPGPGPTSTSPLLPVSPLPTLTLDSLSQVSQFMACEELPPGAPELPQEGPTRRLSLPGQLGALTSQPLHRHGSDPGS

In the case of `Cc1cc(C(F)(F)F)ncc1-c1ccc(C2(C(=O)Nc3ccc(F)cc3)COC2)cc1`, the solubility in data set [1] and in data set [4] was below 3 µM each time. The CL free in data set [2] is 590 mL/min/kg; in data set [3], 330 mL/min/kg.

Molecule `CCCNC(=O)C1(c2ccc(-c3ccncc3)cc2)CCC1` displayed an IC50 in data set [5] above 10 µM.

On to `CC(C)(O)c1cc(C(F)(F)F)ncc1-c1ccc(C2(C(=O)Nc3ccc(F)cc3)COC2)cc1`, for which the T1/2 in [6] stood at 2.55 h. Besides, the IC50 came out at 40 µM in data set [7]; 8.64 µM on Cytochrome P450 2C9; 8.3 µM in data set [15]; 0.29 nM in data set [16]; 0.003 µM in [5]; 12 µM in data set [19]. For the same molecule, the bioavailability in data set [8] was 50%; in data set [9] it was 27%; in data set [11] it was 62%; in data set [18], 16%. Further, the Ki in [10] turned out to be 0.00011 µM. Further, the results for the half-life in data set [12] and in [20] were 7.4 h and 43 h, respectively. Further, the Activity result in [13] and in [17] was “Dde” each time. Further, in data set [14], the K is 4.54 10^-3/min. Moreover, the solubility in data set [1] is 124 µM (≈ 58.8 µg/mL); in [4], 123 µM (≈ 58.4 µg/mL). Also, the CL free in data set [2] is 12 mL/min/kg; in data set [3], 11 mL/min/kg.

Consider `O=C(Nc1ccc(F)cc1)C1(c2ccc(-c3nc(C4CC4)no3)cc2)COC1`, for which the IC50 in data set [21] was determined as 13.8 µM. For the same molecule, the solubility in [1] was 40 µM (≈ 15.2 µg/mL); in [4] it was 141 µM (≈ 53.5 µg/mL). Further, the CL free worked out at 971 mL/min/kg in data set [2] and 4 mL/min/kg in data set [3].

For `O=C(Nc1ccc(F)cc1)C1(c2ccc(-c3cnc(C(F)(F)F)cc3CO)cc2)CC(F)(F)C1`, the concentration for half-maximal inhibition (IC50) against Cytochrome P450 2C9 was determined as 0.805 µM. Besides, the values for the solubility in data set [1] and in data set [4] were 16 µM (≈ 7.69 µg/mL) and 17 µM (≈ 8.17 µg/mL), respectively. Besides, the values for the CL free in data set [2] and in data set [3] were below 12 mL/min/kg and below 6 mL/min/kg, respectively.

With `O=C(Nc1ccc(C2(C(=O)Nc3ccc(F)cc3)COC2)cc1)c1cccc(Cl)c1`, the values for the CL free in data set [2] and in data set [3] were 250 mL/min/kg and 420 mL/min/kg, respectively.

Take `CCCNC(=O)C1(c2ccc(NC(=O)c3cccc(Cl)c3)cc2)CCC1`: in data set [22], the half-life is 0.89 h. In addition, the MRT in data set [23] was 0.7 h. This molecule returned a Vdss in data set [24] of 180 L/kg.

For `CCCNC(=O)C1(c2ccc(-c3ccccn3)cc2)CCC1`, in [5], the IC50 is above 10 µM.

As to `O=C(Nc1ccc(F)cc1)C1(c2ccc(-c3cnc(C(F)(F)F)cc3CO)cc2)CCC1`, the IC50 turned out to be 0.905 µM on Cytochrome P450 2C9 and 11.9 µM in data set [21]. For the same molecule, the solubility in [1] and in data set [4] was below 2 µM each time. Moreover, the results for the CL free in [2] and in data set [3] were 1658 mL/min/kg and 376 mL/min/kg, respectively.

With `O=C(Nc1ccc(F)cc1)C1(c2ccc(-c3cnc(C(F)(F)F)cc3CO)cc2)COC1`, the IC50 was determined as 6.3 µM on Cytochrome P450 2C9, 22.8 µM in data set [21], 2.5 nM in data set [16] and 0.002 µM in [5]. In data set [10], the Ki stood at 0.00015 µM. Further, the solubility in data set [1] was found to be 147 µM (≈ 65.6 µg/mL); in data set [4] it was 145 µM (≈ 64.7 µg/mL). For the same molecule, the Kd in data set [25] amounted to 0.000158 µM. The CL free was below 10 mL/min/kg in data set [2] and 19 mL/min/kg in [3].

Take `Cc1cc(C2CC2)ncc1-c1ccc(C2(C(=O)Nc3ccc(F)cc3)COC2)cc1`: the solubility is 139 µM (≈ 55.9 µg/mL) in data set [1] and below 3 µM in [4]. Also, the IC50 in [16] worked out at 0.08 nM. In addition, the figures for the CL free in [2] and in [3] were 6156 mL/min/kg and 365 mL/min/kg, respectively.

As for `CCCNC(=O)C1(c2ccc(-c3ccc(C)nc3)cc2)CCC1`, the midpoint of inhibition in [5], the IC50, lay at 1.17 µM.

Regarding `O=C(Nc1ccc(F)cc1)C1(c2ccc(-n3cnc(C4CC4)cc3=O)cc2)COC1`, in data set [21], the IC50 is above 60 µM. The figures for the solubility in data set [1] and in data set [4] were 140 µM (≈ 56.8 µg/mL) and 143 µM (≈ 58 µg/mL), respectively.

The molecule `CCCNC(=O)C1(c2ccc(-c3cccnc3)cc2)CCC1` had an IC50 in data set [5] of 8.02 µM.

Consider `O=C(Nc1ccc(F)cc1)C1(c2ccc(-c3ccc(C4CC4)nc3)cc2)COC1`, for which the solubility in [1] and in data set [4] was below 3 µM throughout. Moreover, the half-inhibitory concentration (IC50) in data set [16] is 377 nM. Moreover, the CL free came to 4361 mL/min/kg in data set [2] and 689 mL/min/kg in [3].

The record behind these values is ChEMBL document CHEMBL5154775, “Oxetane Promise Delivered: Discovery of Long-Acting IDO1 Inhibitors Suitable for Q3W Oral or Parenteral Dosing” (J Med Chem, 2022).
